# Measured values: patent US20130266557A1, “METHODS FOR TREATMENT OF A SARCOMA USING AN EPIMETABOLIC SHIFTER (COENZYME Q10)” (priority 2009, published 2013)
# Entries after “also recorded” stand apart in the source; their conditions may differ.
# Tests used:
# NCIES0808 cells = test: Two-dimensional gel analysis with MS identification; format: cell-based, human
# Protocol: NCIES0808 cells were plated in T25 flasks in experimental conditions similar to those described in the PCR array section. At the end of the treatment time, cells were trypsinized as described in the PCR array section and washed twice in ice cold TBS and snap frozen in liquid nitrogen. Further processing for Western blots was carried out at UMass.
# Before isoelectric focusing (IEF), samples were solubilized in 40 mM Tris, 7 M urea, 2 M thiourea, and 1% C7 zwitterionic detergent, reduced with tributylphosphine, and alkylated with 10 mM acrylamide for 90 min at room temperature. After the sample was run through a 10-kDa cutoff Amicon Ultra device with at least 3 volumes of the resuspension buffer, consisting of 7 M urea, 2 M thiourea, and 2% CHAPS to reduce the conductivity of the sample. One hundred micrograms of protein were subjected to IEF on 11-cm pH 3 to 10, pH 4 to 7 or pH 6 to 11 immobilized pH gradient strips (GE, Amersham, USA) to 100,000 volts hour. After IEF, immobilized pH gradient strips were equilibrated in 6 M urea, 2% SDS, 50 mM Tris-acetate buffer, pH 7.0, and 0.01% bromphenol blue and subjected to SDS-polyacrylamide gel electrophoresis on 8 to 16% Tris-HCl Precast Gel, 1 mm (Bio-Rad, USA). The gels were run in duplicate. They were fixed, stained in SYPRO Ruby, 80 mL/gel (Invitrogen, USA) and imaged on Fuji FLA-5100 laser scanner.
# Analysis of all gel images was performed using Progenesis Discovery and Pro (Nonlinear Dynamics Inc., Newcastle upon Tyne, UK). After spot detection, matching, background subtraction, normalization, and filtering, data for SYPRO Ruby gel images was exported. […] Manual annotation of each statistically significant spots was performed to assure accurate detection.
# Tryptic peptides extracted from respective gel plugs were dried down to a 10 ul volume and acidified with 1-2 ul of 1% TFA. Samples were loaded on an uC18 Zip Tip (Millipore, Corp) after pre-equilibration in 0.1% TFA. After washing with 2×10 ul aliquots of 0.1% TFA, samples were deposited directly onto the MALDI sample target using 1 ul of Matrix solution 15 mg/ml of 2,5 Dihydroxybenzoic Acid (MassPrep DHB, Waters Corp.) in 50:50 Acetonitrile: 0.1% TFA. Samples were allowed to air dry prior to insertion into the mass spectrometer. Analysis were performed on a Kratos Axima QIT (Shimadzu Instruments) matrix-assisted-laser desorption/ionization (MALDI) mass spectrometer. Peptides were analyzed in positive ion mode in mid mass range (700-3000 Da). The instrument was externally calibrated with Angiotensin II (1046.54), P14R (1533.86) and ACTH (18-39) 2465.20 Da. Precursors were selected based on signal intensity at a mass resolution width of 250 for CID fragmentation using Argon as the collision gas. Database searches were performed in house with Mascot (Matrix Sciences, Ltd.) using the Peptide Mass Fingerprint program for MS data and the MS/MS Ion Search program for CID data. All identifications were confirmed or established with CID (MS/MS) data.
# NCIES0808 cells treated for 3, 6 and 24 hours were subjected to 2-D gel electrophoreses and were analyzed to identify protein-level changes relative to the control media samples. A comparative analysis of spots across multiple duplicated gels was performed, comparing the “control media sample” against all of the treated samples at both the 50 uM and 100 uM doses. The analysis included the identification of spot changes over the time course due to an increase, decrease, or post-translational modification.
# cancer = conditions: Mazzio 2006; cited from earlier work
# [1] = 24 hours, 50 uM Q10, − = down, 1 = no change
# [2] = 24 hours, 100 uM Q10, − = down, 1 = no change
substance,measurement,setting,value
Coenzyme Q10 [CoQ10],"Spot 372, lamin B1: modulation vs control media",NCIES0808 cells; [1],1
same,"Spot 387, SMT 3 suppressor of mif two 3 homolog 2: modulation vs control media",NCIES0808 cells; [1],1
same,"Spot 388, heat shock protein 27 kD: modulation vs control media",NCIES0808 cells; [1],1.1
same,"Spot 396, hnRNP C1/C2: modulation vs control media",NCIES0808 cells; [1],−1.4
same,"Spot 436, eukaryotc translation elongation factor 1 beta 2: modulation vs control media",NCIES0808 cells; [1],1
same,"Spot 490, Similar to HSPC-300: modulation vs control media",NCIES0808 cells; [1],−1.2
same,"Spot 506, heat shock protein 27 kD: modulation vs control media",NCIES0808 cells; [1],−1.2
same,"Spot 511, eukaryotic translation elongation factor 1 delta: modulation vs control media",NCIES0808 cells; [1],1
same,"Spot 524, eukaryotic translation elongation factor 1 delta: modulation vs control media",NCIES0808 cells; [1],1
same,"Spot 532, putative c-myc-responsive isoform 1: modulation vs control media",NCIES0808 cells; [1],1
same,"Spot 557, lamin B1: modulation vs control media",NCIES0808 cells; [1],1
same,"Spot 575, ER lipid raft associated 2 isoform 1; beta actin: modulation vs control media",NCIES0808 cells; [1],1.1
same,"Spot 583, Dismutase Cu/Zn Superoxide: modulation vs control media",NCIES0808 cells; [1],1.1
same,"Spot 622, DNA directed DNA polymerase epislon 3; (canopy 2 homolog): modulation vs control media",NCIES0808 cells; [1],−1.1
same,"Spot 646, signal sequence receptor 1 delta: modulation vs control media",NCIES0808 cells; [1],1
same,"Spot 16, alpha 2-HS glycoprotein (Bos Taurus, cow): modulation vs control media",NCIES0808 cells; [2],5.9
same,"Spot 130, ribosomal proten P2; histone H2A: modulation vs control media",NCIES0808 cells; [2],−4.2
same,"Spot 180, beta actin: modulation vs control media",NCIES0808 cells; [2],3
same,"Spot 234, hnRNP C1/C2: modulation vs control media",NCIES0808 cells; [2],−2.6
same,"Spot 244, heat shock protein 70 kD: modulation vs control media",NCIES0808 cells; [2],1.7
same,"Spot 275, microtubule associated protein: modulation vs control media",NCIES0808 cells; [2],−1.8
same,"Spot 311, beta tubulin: modulation vs control media",NCIES0808 cells; [2],2.6
same,"Spot 314, proteasome alpha 3: modulation vs control media",NCIES0808 cells; [2],−2.2
same,"Spot 363, ATP dependent helicase II: modulation vs control media",NCIES0808 cells; [2],2.1
same,"Spot 369, eukaryotic translation elongation factor 1 delta: modulation vs control media",NCIES0808 cells; [2],−2
same,"Spot 372, lamin B1: modulation vs control media",NCIES0808 cells; [2],−2.1
same,"Spot 387, SMT 3 suppressor of mif two 3 homolog 2: modulation vs control media",NCIES0808 cells; [2],−1.95
same,"Spot 388, heat shock protein 27 kD: modulation vs control media",NCIES0808 cells; [2],−1.7
same,"Spot 396, hnRNP C1/C2: modulation vs control media",NCIES0808 cells; [2],−2
same,"Spot 436, eukaryotc translation elongation factor 1 beta 2: modulation vs control media",NCIES0808 cells; [2],−1.9
same,"Spot 490, Similar to HSPC-300: modulation vs control media",NCIES0808 cells; [2],1.5
same,"Spot 506, heat shock protein 27 kD: modulation vs control media",NCIES0808 cells; [2],−1.9
same,"Spot 511, eukaryotic translation elongation factor 1 delta: modulation vs control media",NCIES0808 cells; [2],−1.6
same,"Spot 524, eukaryotic translation elongation factor 1 delta: modulation vs control media",NCIES0808 cells; [2],−1.7
same,"Spot 532, putative c-myc-responsive isoform 1: modulation vs control media",NCIES0808 cells; [2],1.4
same,"Spot 557, lamin B1: modulation vs control media",NCIES0808 cells; [2],−1.6
same,"Spot 575, ER lipid raft associated 2 isoform 1; beta actin: modulation vs control media",NCIES0808 cells; [2],1.6
same,"Spot 583, Dismutase Cu/Zn Superoxide: modulation vs control media",NCIES0808 cells; [2],−1.3
same,"Spot 622, DNA directed DNA polymerase epislon 3; (canopy 2 homolog): modulation vs control media",NCIES0808 cells; [2],−1.6
same,"Spot 646, signal sequence receptor 1 delta: modulation vs control media",NCIES0808 cells; [2],1.5
same,"Expression of proteosome subunits PSMA3, PSMB3, PSMB4 and ubiquitin enzymes (ubiquilin)",NCIES0808 cells; Ewing Sarcoma ES0808 cell line treated with CoQ10,sustained increases
same,Ku70 (ATP dependent helicase II) level,NCIES0808 cells; Ewing Sarcoma ES0808 cell lines treated with CoQ10,decrease
same,"Proteins with observed increase in expression (value = protein), discussion A",NCIES0808 cells; Ewing Sarcoma cell line treated with CoQ10,"ribosomal proteins (RPLP2); also recorded: eukaryotic translation initiation factors (EIF3G, EIF4A2); also recorded: eukaryotic translation elongation factors (EEF1B2, EEF1D); also recorded: heat shock proteins (HSP27, HSP60, HSP70); also recorded: dyenin"
same,hnRNP C1/C2 expression,NCIES0808 cells; persisted up to 24 hours,down-regulation
same,Lethality against cancer,cancer,did not find CoQ10 to be as lethal as expected
